Experimental data taken from the NIST ThermoML archive (doi:10.1016/j.jct.2007.11.009).

What was measured:
[1] = Liquid, Vibrating tube method
[2] = refractive index (Na D-line) (dimensionless); details: 298.15 K; 101.33 kPa; Liquid; Standard Abbe refractometry

c1ccccc1 [benzene]
mass density [kg/m3], [1]
Details | 298.15 K | 308.15 K | 318.15 K | 328.15 K
100 kPa | 873.5 | 862.9 | 852.3 | 841.5
2130 kPa | 875.1 | 864.7 | 854.2 | 843.6
4150 kPa | 876.7 | 866.4 | 856.1 | 845.6
6180 kPa | 878.4 | 868.2 | 857.9 | 847.5
8210 kPa | 879.9 | 869.9 | 859.7 | 849.5
10230 kPa | 881.5 | 871.6 | 861.5 | 851.3
11250 kPa | 882.3 | 872.4 | 862.4 | 852.3
12260 kPa | 883.1 | 873.2 | 863.2 | 853.2
14290 kPa | 884.6 | 874.8 | 865 | 855
16310 kPa | 886.1 | 876.4 | 866.6 | 856.8
18340 kPa | 887.6 | 878 | 868.3 | 858.6
20370 kPa | 889.1 | 879.5 | 869.9 | 860.3
22390 kPa | 890.5 | 881.1 | 871.6 | 862
24420 kPa | 892 | 882.6 | 873.2 | 863.7
26450 kPa | 893.4 | 884 | 874.7 | 865.3
28470 kPa | 894.7 | 885.5 | 876.2 | 866.9
29490 kPa | 895.4 | 886.2 | 877 | 867.8
30500 kPa | 896.1 | 886.9 | 877.8 | 868.6
32530 kPa | 897.5 | 888.4 | 879.2 | 870.1
34550 kPa | 898.8 | 889.7 | 880.7 | 871.7
36580 kPa | 900.1 | 891.1 | 882.1 | 873.1
38600 kPa | 901.4 | 892.5 | 883.6 | 874.7
39620 kPa | 902 | 893.2 | 884.3 | 875.4

Details | refractive index
[2] | 1.4979

CCCCCCCC [octane]
mass density [kg/m3], [1]
Details | 298.15 K | 308.15 K | 318.15 K | 328.15 K
100 kPa | 698.7 | 690.8 | 682.8 | 674.5
2130 kPa | 700.4 | 692.6 | 684.7 | 676.6
4150 kPa | 702.2 | 694.4 | 686.7 | 678.7
6180 kPa | 703.8 | 696.2 | 688.6 | 680.7
8210 kPa | 705.4 | 698 | 690.4 | 682.6
10230 kPa | 707 | 699.7 | 692.2 | 684.6
11250 kPa | 707.8 | 700.5 | 693.1 | 685.5
12260 kPa | 708.6 | 701.3 | 694 | 686.4
14290 kPa | 710.1 | 703 | 695.7 | 688.3
16310 kPa | 711.7 | 704.5 | 697.4 | 690.1
18340 kPa | 713.1 | 706.1 | 699.1 | 691.8
20370 kPa | 714.6 | 707.6 | 700.7 | 693.6
22390 kPa | 715.9 | 709.1 | 702.3 | 695.2
24420 kPa | 717.4 | 710.6 | 703.9 | 696.9
26450 kPa | 718.8 | 712 | 705.4 | 698.5
28470 kPa | 720.1 | 713.4 | 706.9 | 700
29490 kPa | 720.8 | 714.1 | 707.6 | 700.8
30500 kPa | 721.4 | 714.8 | 708.3 | 701.6
32530 kPa | 722.7 | 716.2 | 709.7 | 703
34550 kPa | 724 | 717.5 | 711.2 | 704.5
36580 kPa | 725.3 | 718.8 | 712.5 | 706
38600 kPa | 726.5 | 720.2 | 713.9 | 707.4
39620 kPa | 727.1 | 720.8 | 714.6 | 708.1

Details | refractive index
[2] | 1.395
